Measurements taken from patent US20130287757A1, “COMPOSITION FOR THE REGENERATION OF ATROPHIC TISSUES” (MEDESTEA INTERNAZIONALE S.P.A., priority 2011, published 2013).

B1: Papain FU (protein, UniProt P00784 134-345, looked up)
Papain: IPEYVDWRQKGAVTPVKNQGSCGSCWAFSAVVTIEGIIKIRTGNLNEYSEQELLDCDRRSYGCNGGYPWSALQLVAQYGIHYRNTYPYEGVQRYCRSREKGPYAAKTDGVRQVQPYNEGALLYSIANQPVSVVLEAAGKDFQLYRGGIFVGPCGNKVDHAVAAVGYGPNYILIKNSWGTGWGENGYIRIKRGTGNSYGVCGLYTSSFYPVKN

Tests used:
[1] = tested on: biopsies from chronic atrophic ulcers (base and margins); test: FACS of cell suspensions from cultured biopsies; assay type: cell-based, animal; settings: for CK-1, FACS absolute value / CK-5, FACS absolute value / CK-10, FACS absolute value / CK-14, FACS absolute value / Collagen type I, FACS absolute value / Collagen type IV, FACS absolute value: geometric mean +/− Standard Deviation; for CK-1, FACS fluorescence as percentage value / CK-5, FACS fluorescence as percentage value / CK-10, FACS fluorescence as percentage value / CK-14, FACS fluorescence as percentage value / Collagen type I, FACS fluorescence as percentage value / Collagen type IV, FACS fluorescence as percentage value: relative to the isotypes, nonspecific fluorescence deducted
Method: The animal biopsy samples investigated are constituted of biopsies from chronic atrophic ulcers (base and margins).
The biopsies were then sectioned into twelve parts ([…] controls, 1-11, and one sample, 12, to be treated for each patient) and suspended in a final volume of 25 ml of the respective culture solutions in plates (Lab-Tek chamber slides, Nunc, Kamstrup, Denmark) of 10 cm.
One type of sample (12th portion of each biopsy investigated) was prepared, as follows: • sample-12: the biopsy findings of sample (12) were placed in plates (Lab-Tek chamber slides, Nunc, Kamstrup, Denmark) of 10 cm in culture medium in a solution Culture medium UL-MD.
All the findings were incubated for 15 days in a Heraeus incubator thermostatically controlled to a temperature of 37° C. with an atmosphere containing 5% of constant supply of CO2 (v/v in air). Two thirds of the culture medium was replaced every 7 days. All biopsy tissues used in culture constitute a possible optional substrate co-conditioning for the three-dimensional growth of the cellular samples investigated.
Cellular suspensions obtained after digestion with collagenase were transferred to 15-ml test tubes (Nunc, Kamstrup, Denmark) and fixed in 4% paraformaldehyde solution for 30 minutes at room temperature. After three washings with PBS (pH 7.4), the cells were permeabilized with Triton 0.1% for 15 minutes, […] at room temperature. The pellets of the samples (Sample, 12) and of the controls (CTRLs, 1-11) were resuspended to a final concentration of 5×10^5 cells/ml in PBS and incubated with the following primary antibodies (ABD serotec, Kidlington-Oxford, UK): anti-collagen type I, anti-collagen type anti-IV and anti-cytokeratins (CK)-1, -5, -10, -14. All monoclonal antibodies conjugated with R-phycoerythrin (PE) or fluorescein isothiocyanate (FITC) were used. Specific controls with the corresponding isotypes were divided for each monoclonal antibody (ABD serotec). The samples were submitted to quantitative analysis by a laser cytofluorometer (Epics profile II, Coulter, Hialeath, FL) at 488 nm, where the percentage of fluorescent cells (PFC) reflects the geometric mean of the field of interest. The threshold values (gates) were established using control samples labelled with the corresponding isotype. All the values were analysed with a minimum threshold of 15 000 cells.
The results relating to the expression of collagen type I, collagen type IV and of cytokeratins (CK) 1, 5, 10 and 14 were expressed with a quantitative scale relative to the fluorescence expressed as a percentage value relative to the isotypes, after deducting the assumed nonspecific fluorescence (specific gate), as follows: […]

[2] = tested on: biopsies from chronic atrophic ulcers (base and margins); test: Western Blot phenotypic analysis of cultured biopsies; assay type: cell-based, animal; design: key: −−− = absence of band; −/+ = slight presence of band; + = thin band present; ++ = medium band present; +++ = broad band present; ++++ = high band present; +++++ = diffuse band present; settings: 15 days culture
Method: The animal biopsy samples investigated are constituted of biopsies from chronic atrophic ulcers (base and margins). The biopsies were then sectioned into twelve parts ([…] controls, 1-11, and one sample, 12, to be treated for each patient) and suspended in a final volume of 25 ml of the respective culture solutions in plates (Lab-Tek chamber slides, Nunc, Kamstrup, Denmark) of 10 cm. Eleven types of control were prepared: • a negative control, untreated (1), i.e. treated exclusively with saline and antibiotics (as described above); • a positive control treated (2) with cell culture media commonly used for skin biopsies; • a control-3 treated with DMEM-LG/F 12 (1:1) culture medium and with the active ingredient described in Table 4. • a control-4 treated with DMEM-LG/F 12 (1:1) culture medium and with the active ingredient described in Table 5. • a control-5 treated with DMEM-LG/F 12 (1:1) culture medium and with the active ingredient described in Table 6. • a control-6 treated with DMEM-LG/F 12 (1:1) culture medium and with the active ingredient described in Table 7. • a control-8 treated with DMEM-LG/F 12 (1:1) culture medium and with the active ingredient described in Table 8. • a control-9 treated with DMEM-LG/F 12 (1:1) culture medium and with the active ingredient described in Table 9. • a control-10 treated with DMEM-LG/F12 (1:1) culture medium and with the active ingredient described in Table 10. • a control-11 treated with DMEM-LG/F12 (1:1) culture medium and with the active ingredient described in Table 11. One type of sample (12th portion of each biopsy investigated) was prepared, as follows: • sample-12: the biopsy findings of sample (12) were placed in plates (Lab-Tek chamber slides, Nunc, Kamstrup, Denmark) of 10 cm in culture medium in a solution Culture medium UL-MD. […] Two thirds of the culture medium was replaced every 7 days. All biopsy tissues used in culture constitute a possible optional substrate co-conditioning for the three-dimensional growth of the cellular samples investigated. […] After five washings, the membranes were incubated with the respective secondary antibodies (1:1000) conjugated with horseradish peroxidase (HRP, Santa Cruz, Calif., USA) for 1 h at room temperature, as shown below in Table 12.

| Molecule | CK-1, FACS absolute value [1] | CK-5, FACS absolute value [1] | CK-10, FACS absolute value [1] | CK-14, FACS absolute value [1] | Collagen type I, FACS absolute value [1] | Collagen type IV, FACS absolute value [1] | CK-1, FACS fluorescence as percentage value [1] [%] | CK-5, FACS fluorescence as percentage value [1] [%] | CK-10, FACS fluorescence as percentage value [1] [%] | CK-14, FACS fluorescence as percentage value [1] [%] | Collagen type I, FACS fluorescence as percentage value [1] [%] | Collagen type IV, FACS fluorescence as percentage value [1] [%] | CK-1 expression, Western Blot band [2] | CK-10 expression, Western Blot band [2] | CK-14 expression, Western Blot band [2] | Collagen type I expression, Western Blot band [2] | CK-5 expression, Western Blot band [2] | Collagen type IV expression, Western Blot band [2] |
| --- | --- | --- | --- | --- | --- | --- | --- | --- | --- | --- | --- | --- | --- | --- | --- | --- | --- | --- |
| O=C(O)c1ccccc1O [CTRL 4, Salicylic acid] | 29 +/− 7 | 6 +/− 5 | 9 +/− 7 | 11 +/− 8 | 12 +/− 3 | 9 +/− 8 | 14 | 0 | 1.9 | 1.25 | 3.9 | 0.3 | ++ | + | + | + |  |  |
| CC1(C)[C@@H](O)CC[C@]2(C)[C@H]3C(=O)C=C4[C@@H]5C[C@@](C)(C(=O)O)CC[C@]5(C)CC[C@@]4(C)[C@]3(C)CC[C@@H]12 [CTRL 8, Glycyrrhetic acid] | 5 +/− 3 | 3 +/− 1 | 4 +/− 1 | 2 +/− 1 | 6 +/− 4 | 7 +/− 5 | 1 | 1 | 0.5 | 0.1 | 0.9 | 0.9 | −/+ | + | −/+ | −/+ | −/+ | −/+ |
| [O]=[Zn] [CTRL 6, Zinc oxide powder] | 14 +/− 11 | 2 +/− 2 | 1 +/− 1 | 10 +/− 7 | 3 +/− 2 | 12 +/− 8 | 3 | 0 | 0 | 1.7 | 0.3 | 1.5 | + |  | + |  |  | + |
| B1 | 11 +/− 9 | 8 +/− 5 | 1 +/− 1 | 19 +/− 14 | 5 +/− 4- | 7 +/− 6 | 2 | 1.2 | 0 | 2 | 0.5 | 0.1 | + |  | + |  | + |  |
